From US20040197705A1, “Cyanide compound, optical filter, and optical recording material” (ASAHI DENKA CO., LTD., priority 2003, published 2004)

Legend:
Assay type in all cases: physicochemical
[1] = Evaluation of solubility in methyl ethyl ketone (MEK); conditions: in methyl ethyl ketone (MEK) at 20° C.; % by weight; tested from 0.1 to 0.3% by 0.05%
Method: The test compound was added to MEK at 20° C. in an amount corresponding to a concentration varying from 0.1 to 0.3% by weight by 0.05% by weight to see whether it dissolved or not.

[2] = UV transmission and reflection spectra of spin-coated specimens (optical recording material); conditions: for Reflected Light Intensity at 650 nm: expressed relatively to that at λmax; for Reflected Light Intensity at 650 nm / Reflected Light λmax: incidence angle 5°; for Reflected Light λmax: specimen as in Evaluation Example 3; for Transmitted Light λmax: specimen spin coated on polycarbonate plate as in Evaluation Example 3
Method: (§1) The test compound shown in Table 2 below was dissolved in a 1:1 (by volume) mixed solvent of MEK and 2,2,3,3-tetrafluoropropan-1-ol to prepare a 1 wt % solution. The solution was applied to a 20 mm×20 mm polycarbonate plate by spin coating at 2000 rpm for 60 seconds to prepare a specimen. The UV absorption spectrum of the specimen was determined. The specimen was then irradiated with light of 55000 lux, and the exposure time required for the absorption retention (as defined in Evaluation Example 2) to decrease to 50% was measured.
Specimens were prepared in the same manner as in Evaluation Example 3. The UV transmission spectrum and the UV reflection spectrum (incidence angle: 5°) of the specimens were measured. In Table 4, the reflected light intensity at 650 nm is expressed relatively to that at λmax.

[3] = Evaluation of light resistance (absorption retention halving time); conditions: film spin coated on polycarbonate plate; light of 55000 lux; exposure time for absorption retention to decrease to 50%
Method: as §1

[4] = Decomposition temperature in TG-DTA; conditions: 100 ml/min nitrogen stream; temperature rise 10° C./min
Method: Decomposition Temperature in TG-DTA (100 ml/min nitrogen stream; temperature rise: 10° C./min): 281° C.

[5] = Absorption spectrum of optical filters containing the cyanine compound (λmax, half bandwidth); conditions: Example 3: PET-protected glass plate with dye-containing acrylic binder layer
Method: A binder composition having the above formulation was applied to a 188 μm thick PET film having been surface treated for adhesion improvement with a bar coater #9 and dried at 80° C. for 30 seconds. The PET film was hot bonded to a 0.9 mm thick alkali glass plate to prepare a PET-protected glass plate having a light absorbing dye-containing binder layer between the glass substrate and the PET film.

Structure (SMILES): CC1=[N+](C)c2ccccc2/C1=C1/C(=O)C(c2c(C)n(C)c3ccccc23)=C1[O-] [Comp. Compound 1, reference compound]
- Solubility: insoluble at [1]: insoluble at 0.1%

Structure (SMILES): CCCCn1c(C)c(C2=C([O-])/C(=C3/C(C)=[N+](CCCC)c4ccccc43)C2=O)c2ccccc21 [Comp. Compound 2, reference compound]
- Solubility: insoluble at [1]: insoluble at 0.1%

Structure (SMILES): CC(C)CCn1cc(C2=C([O-])/C(=C/C3=[N+](C)c4ccccc4C3(C)C)C2=O)c2ccccc21 [Compound No. 3]
- Reflected Light Intensity at 650 nm [2]: 100%
- Reflected Light λmax [2]: 651 nm
- Transmitted Light λmax [2]: 608 nm
- Absorption Retention Halving Time [3]: 26 h

Structure (SMILES): Cn1cc(C2=C([O-])/C(=C/C3=[N+](C)c4ccc5ccccc5c4C34CCCCC4)C2=O)c2ccccc21 [Compound No. 4]
- Solubility: insoluble at [1]: < 0.2%
- Solubility: soluble at [1]: ≥ 0.15%
- Decomposition Temperature in TG-DTA [4]: 259 °C

Structure (SMILES): CC(C)CC[N+]1=C(/C=C2\C(=O)C(c3cn(C)c4ccccc34)=C2[O-])C(C)(C)c2ccccc21 [Compound No. 5]
- Solubility: soluble at [1]: soluble at 0.3%
- Decomposition Temperature in TG-DTA [4]: 271 °C
- Reflected Light Intensity at 650 nm [2]: 95.9%
- Reflected Light λmax [2]: 656 nm
- Transmitted Light λmax [2]: 611 nm
- Half Bandwidth [5]: 29 nm
- λmax [5]: 587 nm
- Absorption Retention Halving Time [3]: 38 h

Structure (SMILES): Cc1c(C2=C([O-])/C(=C/C3=[N+](C)c4ccccc4C3(C)C)C2=O)c2ccccc2n1C [Compound No. 14]
- Solubility: soluble at [1]: soluble at 0.3%
- Decomposition Temperature in TG-DTA [4]: 287 °C
- Half Bandwidth [5]: 30 nm
- λmax [5]: 602 nm

Structure (SMILES): Cc1[nH]c2ccc(F)cc2c1C1=C([O-])/C(=C/C2=[N+](C)c3ccccc3C2(C)C)C1=O [Compound No. 22]
- Decomposition Temperature in TG-DTA [4]: 295 °C
- Half Bandwidth [5]: 33 nm
- λmax [5]: 590 nm

Structure (SMILES): Cc1c(C2=C([O-])/C(=C/C3=[N+](C)c4ccccc4C3(C)C)C2=O)c2cc([N+](=O)[O-])ccc2n1CCC(C)C [Compound No. 23]
- Half Bandwidth [5]: 36 nm
- λmax [5]: 597 nm

Structure (SMILES): Cn1c(-c2ccccc2)c(C2=C([O-])/C(=C/C3=[N+](C)c4ccccc4C3(C)C)C2=O)c2ccccc21 [Compound No. 26]
- Solubility: soluble at [1]: soluble at 0.3%
- Decomposition Temperature in TG-DTA [4]: 273 °C
- Half Bandwidth [5]: 34 nm
- λmax [5]: 606 nm
